± gives the expanded uncertainty stated by the source.
Assay: xn = mol fraction of the nth substance listed
Conditions: for surface tension liquid-gas: Drop volume; for viscosity / mass density: 100 kPa, Liquid; for viscosity: Concentric cylinders viscometry; for mass density: Vibrating tube method

CCC1CCCCC1 [ethylcyclohexane] + CC(C)CC(C)(C)C
Conditions | mass density, 293.15 K [kg/m3] | mass density, 298.15 K [kg/m3] | surface tension liquid-gas, 293.15 K [mN/m] | surface tension liquid-gas, 298.15 K [mN/m] | viscosity, 293.15 K [mPa·s] | viscosity, 298.15 K [mPa·s]
x1 = 0.1 | 700.76 ± 0.19 | 696.71 ± 0.19 | 19.51 ± 0.24 | 18.91 ± 0.24 | 0.54 ± 0.087 | 0.513 ± 0.082
x1 = 0.1999 | – | – | 19.99 ± 0.24 | 19.38 ± 0.24 | – | –
x1 = 0.2 | 709.8 ± 0.18 | 705.71 ± 0.18 | – | – | 0.565 ± 0.091 | 0.536 ± 0.086
x1 = 0.3 | – | – | 20.57 ± 0.24 | 19.88 ± 0.24 | – | –
x1 = 0.3003 | 719.07 ± 0.18 | 715.02 ± 0.18 | – | – | 0.591 ± 0.095 | 0.56 ± 0.09
x1 = 0.3997 | 728.38 ± 0.17 | 724.34 ± 0.17 | – | – | 0.619 ± 0.099 | 0.586 ± 0.094
x1 = 0.4 | – | – | 21.13 ± 0.24 | 20.4 ± 0.24 | – | –
x1 = 0.5 | – | – | 21.74 ± 0.24 | 21.01 ± 0.24 | – | –
x1 = 0.5002 | 737.96 ± 0.17 | 733.9 ± 0.17 | – | – | 0.65 ± 0.1 | 0.613 ± 0.098
x1 = 0.6001 | – | – | 22.44 ± 0.24 | 21.67 ± 0.24 | – | –
x1 = 0.6005 | 747.68 ± 0.16 | – | – | – | 0.684 ± 0.11 | 0.644 ± 0.1
x1 = 0.7002 | 757.5 ± 0.16 | – | – | – | 0.719 ± 0.12 | 0.677 ± 0.11
x1 = 0.7004 | – | – | 23.16 ± 0.24 | 22.45 ± 0.24 | – | –
x1 = 0.8001 | – | – | 24 ± 0.24 | 23.23 ± 0.24 | – | –
x1 = 0.8003 | 767.49 ± 0.15 | – | – | – | 0.758 ± 0.12 | 0.712 ± 0.11
x1 = 0.8994 | – | – | 24.75 ± 0.24 | 24 ± 0.24 | – | –
x1 = 0.8997 | 777.58 ± 0.15 | – | – | – | 0.801 ± 0.13 | 0.751 ± 0.12
x1 = 1 | 787.98 ± 0.15 | – | 25.47 ± 0.24 | 24.76 ± 0.24 | 0.848 ± 0.14 | 0.793 ± 0.13

From the NIST ThermoML archive (doi:10.1021/acs.jced.5b00105)
